# Experimental data published in ChEMBL document CHEMBL4811258, “Potent Antimalarials with Development Potential Identified by Structure-Guided Computational Optimization of a Pyrrole-Based Dihydroorotate Dehydrogenase Inhibitor Series” (J Med Chem, 2021).
# Legend:
# [1] = Inhibition of Plasmodium falciparum DHODH expressed in Escherichia coli BL21-DE3 using L-dihydroorotate as substrate by steady-state DCIP method
# [2] = Inhibition of Plasmodium vivax DHODH expressed in Escherichia coli BL21-DE3 using L-dihydroorotate as substrate by steady-state DCIP method
# Plasmodium falciparum = assay: microbe, parasite or virus in culture; conditions: 3D7, 72 h
# [3] = Lipophilicity, logD of compound at pH 7.4; assay type: physicochemical; conditions: buffer
# [4] = target: Dihydroorotate dehydrogenase (quinone), mitochondrial (Homo sapiens, UniProt Q02127); assay type: ADME
# Cytochrome P450 3A4 = Cytochrome P450 3A4 (Homo sapiens, UniProt P08684)
# HepG2 = assay: Cytotoxicity against human HepG2 cells; assay type: cell-based
# [5] = target: Dihydroorotate dehydrogenase (quinone), mitochondrial (Mus musculus, UniProt O35435); assay: Inhibition of mouse DHODH up to 100 uM
# [6] = target: Dihydroorotate dehydrogenase (quinone), mitochondrial (Rattus norvegicus, UniProt Q63707); assay: Inhibition of rat DHODH up to 100 uM
# [7] = Mutagenicity in Salmonella typhimurium by Ames test; assay type: toxicity; conditions: salmonella enterica subsp. enterica serovar typhimurium
# L1210 = assay: Cytotoxicity against mouse L1210 cells; assay type: cell-based
# [8] = Inhibition of dog DHODH up to 100 uM; parameters: species or system Canis lupus familiaris
# Sequence of Dihydroorotate dehydrogenase (quinone), mitochondrial (Homo sapiens, UniProt Q02127) (Q02127 whole entry): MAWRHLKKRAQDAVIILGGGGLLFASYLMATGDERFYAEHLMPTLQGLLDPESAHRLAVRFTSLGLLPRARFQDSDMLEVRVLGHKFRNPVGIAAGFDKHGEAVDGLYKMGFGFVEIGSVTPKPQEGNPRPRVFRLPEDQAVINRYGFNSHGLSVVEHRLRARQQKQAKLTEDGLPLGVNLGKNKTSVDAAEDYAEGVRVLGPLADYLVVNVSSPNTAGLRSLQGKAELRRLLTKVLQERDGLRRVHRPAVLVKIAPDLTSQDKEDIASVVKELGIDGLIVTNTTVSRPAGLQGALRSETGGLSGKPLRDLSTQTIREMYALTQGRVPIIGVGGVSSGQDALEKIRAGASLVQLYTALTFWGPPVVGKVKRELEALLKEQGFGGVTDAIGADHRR
# Sequence of Cytochrome P450 3A4 (P08684 whole entry): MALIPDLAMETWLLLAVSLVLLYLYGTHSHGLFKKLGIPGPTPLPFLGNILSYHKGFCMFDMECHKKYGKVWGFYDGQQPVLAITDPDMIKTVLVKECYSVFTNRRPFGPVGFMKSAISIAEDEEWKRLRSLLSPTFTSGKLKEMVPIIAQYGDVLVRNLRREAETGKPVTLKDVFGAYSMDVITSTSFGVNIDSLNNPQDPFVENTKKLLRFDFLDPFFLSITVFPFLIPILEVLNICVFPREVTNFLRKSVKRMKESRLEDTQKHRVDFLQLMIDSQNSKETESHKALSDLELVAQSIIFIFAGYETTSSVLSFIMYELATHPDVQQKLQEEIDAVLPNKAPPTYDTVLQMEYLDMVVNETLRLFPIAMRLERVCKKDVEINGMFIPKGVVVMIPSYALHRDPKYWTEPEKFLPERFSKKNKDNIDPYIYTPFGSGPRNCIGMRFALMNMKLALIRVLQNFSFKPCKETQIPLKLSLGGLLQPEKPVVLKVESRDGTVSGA
# Sequence of Dihydroorotate dehydrogenase (quinone), mitochondrial (Mus musculus, UniProt O35435) (O35435 whole entry): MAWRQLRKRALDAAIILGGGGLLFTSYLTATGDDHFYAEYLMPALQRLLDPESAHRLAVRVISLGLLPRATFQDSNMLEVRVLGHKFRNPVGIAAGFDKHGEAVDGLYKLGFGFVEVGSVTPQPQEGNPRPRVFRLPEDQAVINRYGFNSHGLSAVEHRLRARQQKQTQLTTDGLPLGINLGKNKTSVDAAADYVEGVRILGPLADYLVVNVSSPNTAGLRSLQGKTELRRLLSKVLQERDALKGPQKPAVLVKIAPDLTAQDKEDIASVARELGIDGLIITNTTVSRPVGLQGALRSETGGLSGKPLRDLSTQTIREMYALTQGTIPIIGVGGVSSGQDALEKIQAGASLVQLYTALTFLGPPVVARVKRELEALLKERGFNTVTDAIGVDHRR
# Sequence of Dihydroorotate dehydrogenase (quinone), mitochondrial (Rattus norvegicus, UniProt Q63707) (Q63707 whole entry): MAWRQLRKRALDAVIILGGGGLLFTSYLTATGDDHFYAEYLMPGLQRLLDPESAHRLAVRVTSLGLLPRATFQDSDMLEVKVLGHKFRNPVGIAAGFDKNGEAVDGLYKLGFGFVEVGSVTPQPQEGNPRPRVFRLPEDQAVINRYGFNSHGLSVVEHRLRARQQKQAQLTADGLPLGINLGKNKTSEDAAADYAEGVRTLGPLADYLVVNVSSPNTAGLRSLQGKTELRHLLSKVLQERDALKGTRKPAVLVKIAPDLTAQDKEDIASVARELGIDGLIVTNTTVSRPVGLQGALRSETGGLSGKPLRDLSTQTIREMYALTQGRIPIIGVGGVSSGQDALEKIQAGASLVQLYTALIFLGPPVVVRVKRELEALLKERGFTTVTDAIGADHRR
Compound,IC50 [1] [nM],IC50 [2] [nM],EC50 (Plasmodium falciparum) [nM],logD [3],IC50 [4] [nM],TDI (Cytochrome P450 3A4),Activity (HepG2),inhibition (INH) [5],inhibition (INH) [6],Activity [7],Activity (L1210),inhibition (INH) [8]
COc1ccc(Cc2c[nH]c(C(=O)NC3CC3)c2C)c2cnccc12,23,21,1.7,< 3.4,> 50000,–,–,–,–,–,–,–
Cc1c(Cc2cccc3ccncc23)c[nH]c1C(=O)N1CC(F)(F)C1,16,7.7,3.8,< 3.4,> 100000,–,–,–,–,–,–,–
Cc1c(Cc2ccc(F)c3ccncc23)c[nH]c1C(=O)N1CC(F)(F)C1,11,6.5,3.4,< 3.4,> 100000,–,–,–,–,–,–,–
Cc1c(C2(c3ccc(C(F)(F)F)nc3)CC2)c[nH]c1C(=O)NC(C)c1c[nH]cn1 (stereo in doubt; form 1),–,–,43000,–,–,Active,–,–,–,–,–,–
Cc1c(Cc2cccc3ccncc23)c[nH]c1C(=O)NC1CC1,11,16,2.2,< 3.4,> 100000,–,–,–,–,–,–,–
Cc1c(C2(c3ccc(C(F)(F)F)nc3)CC2)c[nH]c1C(=O)N1CC(F)(F)C1,21,17,2,–,> 100000,–,–,–,–,–,–,–
CCOC(=O)c1[nH]cc(Cc2ccc(C(F)(F)F)c3ncoc23)c1C,47,16,24,–,> 100000,–,–,–,–,–,–,–
Cc1c(C2(c3ccc(C(F)(F)F)c(C#N)c3)CC2)c[nH]c1C(=O)NC(C)c1nc[nH]n1 (stereo in doubt; form 1),–,–,–,–,–,–,Non-Toxic,Not Active,Not Active,Non-Toxic,Non-Toxic,Not Active
CCOC(=O)c1[nH]cc(Cc2cccc3ncoc23)c1C,100,13,220,–,> 100000,–,–,–,–,–,–,–
Cc1c(Cc2ccc(F)c3ccncc23)c[nH]c1C(=O)NC1CC1,6.1,4,0.92,< 3.4,> 100000,–,–,–,–,–,–,–
Cc1c(Cc2ccc(C(F)(F)F)nc2F)c[nH]c1C(=O)NC(C)c1nc[nH]n1 (racemic),990,730,580,–,> 100000,–,–,–,–,–,–,–
N#Cc1c(Cc2ccc(C(F)(F)F)nc2)c[nH]c1C(=O)NC1CC1,410,430,250,–,> 100000,–,–,–,–,–,–,–
